One series has as its system hematological tumors. As to the kind of experiment: Clinical study CHDM201X2101, HDM201 single agent. It is filed as in vivo, human. The protocol: With this regimen, the RD has been determined as 45 mg HDM201 in hematological tumors in the CHDM201X2101 study. […] Proceedings of the American Association for Cancer Research Annual Meeting 2017; 2017 Apr. 1-5; Washington, D.C. Philadelphia (Pa.): AACR; Cancer Res 2017; 77 (13 Suppl): Abstract nr CT154. doi:10.1158/1538-7445.AM2017-CT154).
The starting dose and regimen selection for HDM201 in dose escalation is based on the previous Phase I dose escalation and expansion study of HDM201 as a single-agent in subjects with AML/MDS (CHDM201X2101) in which a dose of 45 mg/day (day 1-7/28-day cycle) was determined to be the RD. In this study, a starting dose and regimen of 20 mg/day HDM201 (day 1-5/28-day cycle) for dose escalation has been selected. The selection of dose and regimen was supported by single agent translational preclinical modeling of tumor bearing rats and population PK/PD modeling of thrombocytopenia and bone marrow blast data from CHDM201X2101 study in AML/MDS subjects. The starting dose corresponds to ˜[…] below the cumulative dose of HDM201 single agent RD (as evaluated in CHDM201X2101 at 45 mg/day (day 1-7/28-day cycle), or 315 mg/cycle). At this dose level, ˜15% of subjects are predicted to achieve preclinical derived average target efficacious concentrations of HDM201 per cycle, with some anticipated clinical activity (bone marrow blast reduction) and limited target myelosuppression.

The subject of another series is Colon 26 cells. As to the kind of experiment: Colon 26 Colorectal Cancer (CRC) syngeneic mouse model. It is filed as in vivo. On the procedure:
Balb/c mice were implanted with 2×10^5 Colon 26 cells subcutaneously. Mice were treated with HDM201 at 40 mg/kg×3 every 3 h po on Days 10, 17 and 24 post cell implant, and anti-Tim3 antibody (murine cross reactive clone 5D12) at 5 mg/kg ip on days 10, 13, 17, and 20. End-point was defined as tumor volume equal or greater than 1000 mm^3.
The anti-tumor effects of HDM201 as a monotherapy or in combination with an anti-TIM3 antibody were evaluated in the Colon 26 Colorectal Cancer (CRC) syngeneic mouse model.

Another series relates to platelet (PLT). As to the kind of experiment: Population PK/PD platelet model parameter estimates (NLME, Monolix) from CHDM201X2101 dataset. The following applies: population estimate. The series is classed as in vivo, human. An excerpt: Based on the population PK/PD data of the clinical study CHDM201X2101, an AML patients platelet model was developed which recognizes that the disease influences the regulation of platelets production. The following graphic elucidates the model.
(§1) For model building the PK/PD dataset of CHDM201X2101 were used and an NLME estimation (Monolix 4.3.2) performed. The model structure and the parameter estimates are provided below. This provided inputs for R/shiny. The mlxR package were used for simulation of longitudinal data from the MLXTRAN model.
EP1=kr1*E^h/(E^h+EC50^h)+kr1D*Cc

The nature of series [1]: Population PK model parameter estimates (NLME, Monolix) from CHDM201X2101 dataset. It is filed as in vivo, human. Particulars: population estimate.
Description: as §1
parameter={r, t1, t2, Tk0, ka, V, Cl, PLTz, MMTP, T12P, sPW, alp, lPW, kr1, kr1D, EC50, ke0, cfr, h, Sg, HGD, koutg, gdfZ, kinG}

A short description of series [2]: Clinical study CPDR001X2105, MBG453 in AML/MDS subjects. The series is classed as in vivo, human. The following applies: 400 mg Q2W and 800 mg Q4W. The protocol: (§2) The MBG453 single agent RD has been determined as 800 mg Q4W in solid tumor subjects primarily based on PK and PKPD modeling of target (TIM-3) occupancy. MBG453 at the dose level of 800 mg Q4W was predicted to give sustained target occupancy of 90% in tumor in >90% of subjects. […] MBG453 single agent is also being evaluated in AML/MDS subjects in the CPDR001X2105 study with Q4W and Q2W regimens.
The RD in AML/MDS has not yet been determined, however it is not expected to be different from solid tumors, based on preliminary PK and safety data.

Series [3] in a line: Clinical study CMBG453X2101, MBG453 single agent in solid tumor subjects. The series is classed as in vivo, human. The following applies: Q4W, based on PK and PKPD modeling of TIM-3 occupancy. On the procedure:
as §2

Where [4] appears, read: learning from clinical study CHDM201X2101.
Setting [5] is: Balb/c mice, Colon 26 sc, HDM201 40 mg/kg x3 every 3 h po days 10, 17, 24, anti-Tim3 antibody 5 mg/kg ip days 10, 13, 17, 20.

Converted amounts (≈) assume the structure as drawn.

Turning to `COc1ncc(-c2nc3c(n2C(C)C)[C@H](c2ccc(Cl)cc2)N(c2cc(Cl)cn(C)c2=O)C3=O)c(OC)n1` [HDM201, (S)-5-(5-Chloro-1-methyl-2-oxo-1,2-dihydro-pyridin-3-yl)-6-(4-chloro-phenyl)-2-(2,4-dimethoxy-pyrimidin-5-yl)-1-isopropyl-5,6-dihydro-1H-pyrrolo[3,4-d]imidazol-4-one], the “RD (recommended dose)” value in the series with hematological tumors (day 1-7/28-day cycle, single-agent, subjects with AML/MDS) is recorded as 45 mg/day. Moreover, in the series with hematological tumors (setting [4]), the “hematopoietic recovery on dosing in AML” value was “Delayed hematopoietic recovery” and the “platelet toxicity on dosing in AML” value is “Cumulative platelet toxicity”. The “RD (recommended dose)” value in the series on hematological tumors (once daily day 1 to day 7 of a 28-day cycle, hematological tumors) turned out to be 45 mg. Moreover, in the series on Colon 26 cells (setting [5]), the “anti-tumor effects (tumor growth)” value is on record as “inhibited tumor growth” and the “complete tumor regressions (CR)” value was 1 CR. Also, the “anti-tumor immune memory / resistance to re-challenge” value in the series on Colon 26 cells (mice with CR or long-term survival, Colon 26 cells) was “develop antitumor immunity and are resistant to re-challenge with the same tumor cells”. In the series with platelet (PLT) (Homo sapiens, drug effect EP1 on platelet production, read-out: pop_EC50), the EC50 was 0.261 µg/mL (≈ 0.469 µM). For the same compound, in the series on platelet (PLT) (method=FIXED, exponent h in EP1), the pop_h was 2. Besides, the pop_kr1D in the series on platelet (PLT) (concentration-proportional term of EP1) is listed as 0.006491. Besides, the pop_ke0 in the series with platelet (PLT) (effect compartment) is on record as 6.152e-05. The pop_kr1 in the series on platelet (PLT) (maximal term of drug effect EP1) is 2.1374. Besides, the pop_Tk0 in series [1] is recorded as 1.314. For the same compound, in series [1] (method=FIXED), the pop_Cl is listed as 6.18, the pop_V is reported as 119 and the pop_ka is listed as 0.489. For the same compound, the pop_t1 in series [1] (method=FIXED, absorption lag (Tlag=t1)) is recorded as 0.69. In addition, the pop_t2 in series [1] (method=FIXED, absorption lag (Tlag=t2)) is on record as 0.412. The pop_r in series [1] (method=FIXED, fraction for zero-order absorption) was 0.617.

With “MBG453: high-affinity, humanized anti-TIM-3 IgG4 monoclonal antibody which blocks the binding of TIM-3 to phosphatidylserin (PtdSer)”, the “tolerability in AML/MDS” value in series [2] is “well tolerated”. In series [3], the “single agent RD (recommended dose)” value is listed as 800 mg.
